Measured values reported in patent US9790229B2, “Bruton's tyrosine kinase inhibitors” (priority 2009, dated 2017).
pIC50: −log10 of the molar value. Where two headings read alike, the source gives them in different places. Values belong to the compound of their own block, whether it stands above or below them.

Target: BTK (Homo sapiens (Human), UniProt Q06187)
Assay: In vitro BTK kinase assay: BTK-POLYGAT-LS ASSAY
[1] = read-out: IC50 (10 uM ATP), 10 uM ATP, in vitro Btk kinase assay, Example 41

Chain of BTK (Q06187 whole entry): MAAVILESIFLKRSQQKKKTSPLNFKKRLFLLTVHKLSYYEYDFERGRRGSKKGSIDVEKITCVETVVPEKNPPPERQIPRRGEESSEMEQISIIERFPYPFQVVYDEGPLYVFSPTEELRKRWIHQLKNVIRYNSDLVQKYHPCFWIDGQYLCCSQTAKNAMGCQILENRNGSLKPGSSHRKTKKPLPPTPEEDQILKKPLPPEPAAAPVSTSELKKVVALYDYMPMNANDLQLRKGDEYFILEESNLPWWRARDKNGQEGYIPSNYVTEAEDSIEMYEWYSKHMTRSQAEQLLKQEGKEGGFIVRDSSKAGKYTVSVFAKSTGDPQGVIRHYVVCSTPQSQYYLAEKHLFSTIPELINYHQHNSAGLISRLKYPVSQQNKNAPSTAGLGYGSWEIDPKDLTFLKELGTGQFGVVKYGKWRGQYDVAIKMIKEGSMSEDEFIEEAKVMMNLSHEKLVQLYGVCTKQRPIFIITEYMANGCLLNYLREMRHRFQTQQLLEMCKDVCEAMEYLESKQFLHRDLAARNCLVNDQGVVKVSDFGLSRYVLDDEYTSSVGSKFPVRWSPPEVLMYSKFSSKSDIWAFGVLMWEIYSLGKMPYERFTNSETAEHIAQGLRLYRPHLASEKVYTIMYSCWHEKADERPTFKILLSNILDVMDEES

SMILES: Nc1ncnc(N2CCC[C@@H](N3CCCC(Nc4ccccc4C(=O)O)C3=O)C2)c1F (stereo partly drawn) [compound 297, 2-((3′R)-1′-(6-Amino-5-fluoropyrimidin-4-yl)-2-oxo-1,3′-bipiperidin-3-ylamino)benzoic acid]
- pIC50: 5.00 to 6.00

SMILES: O=C(Cc1ccccc1)Nc1cccc(C2CCCN(c3ncnc4[nH]ccc34)C2)c1 (stereo not shown) [Cmpd 9, N-(3-(1-(7H-pyrrolo[2,3-d]pyrimidin-4-yl)piperidin-3-yl)phenyl)-2-phenylacetamide]
- pIC50 [1]: < 5.00

SMILES: O=C(Nc1cccc(C2CCCN(c3ncnc4[nH]ccc34)C2)c1)Nc1ccccc1F (stereo not shown) [compound 182]
- pIC50: 5.00 to 6.00

SMILES: O=C(CCc1ccccc1)Nc1cccc(C2CCCN(c3ncnc4[nH]ccc34)C2)c1 (stereo not shown) [Cmpd 23, N-(3-(1-(7H-pyrrolo[2,3-d]pyrimidin-4-yl)piperidin-3-yl)phenyl)-3-phenylpropanamide]
- pIC50: 5.00 to 6.00

SMILES: O=C(Nc1ccc(C2CCCC2)cc1)Nc1cccc(C2CCCN(c3ncnc4[nH]ccc34)C2)c1 (stereo not shown) [compound 255]
- pIC50 [1]: < 5.00

SMILES: CO[C@@H]1CCN(c2ccccc2NC(=O)Nc2cccc(C3CCCN(c4ncnc5[nH]ccc45)C3)c2)C1 (stereo partly shown) [compound 176]
- pIC50: 6.00 to 7.00

SMILES: N[C@@H](C(=O)Nc1cccc(C2CCCN(c3ncnc4[nH]ccc34)C2)c1)c1ccccc1 (stereo partly drawn) [Cmpd 21, (2R)—N-(3-(1-(7H-pyrrolo[2,3-d]pyrimidin-4-yl)piperidin-3-yl)phenyl)-2-amino-2-phenylacetamide]
- pIC50 [1]: < 5.00

SMILES: Nc1ncnc(N2C[C@@H](O)C[C@@H](N3CCCC(Nc4cc(F)cc(Cl)c4)C3=O)C2)c1F (stereo partly drawn) [compound 284, (3′R, 5′S)-1′-(6-Amino-5-fluoropyrimidin-4-yl)-3-(3-chloro-5-fluorophenylamino)-5′-hydroxy-1,3′-bipiperidin-2-one]
- pIC50: 6.00 to 7.00

SMILES: CN1CCCC(CNC(=O)Nc2cccc(C3CCCN(c4ncnc5[nH]ccc45)C3)c2)C1 (stereo not shown) [compound 225]
- pIC50 [1]: < 5.00

- pIC50: 6.00 to 7.00
SMILES: O=C(Nc1cccc(C2CN(c3ncnc4[nH]ccc34)CCC2CO)c1)Nc1ccccc1N1CCCC1 (stereo not shown) [compound 163]

SMILES: O=C(Nc1ccccc1)N[C@H]1CCN(C2CCCN(c3ncnc4[nH]ccc34)C2)C1 (stereo partly shown) [compound 256]
- pIC50 [1]: < 5.00

SMILES: C[C@H]1CCN(c2ncnc(N)c2F)C[C@@H]1N1CCCC(Nc2cccc(Cl)c2)C1=O (stereo partly drawn) [compound 282, trans-1′-(6-Amino-5-fluoropyrimidin-4-yl)-3-(3-chlorophenylamino)-4′-methyl-1,3′-bipiperidin-2-one]
- pIC50 [1]: > 7.00

SMILES: O=C(Nc1cccc(C2CCCN(c3ncnc4[nH]ccc34)C2)c1)NC1CCNCC1 (stereo not shown) [compound 243]
- pIC50 [1]: < 5.00

SMILES: CN(C)[C@H]1CCN(c2ccccc2NC(=O)Nc2cccc(C3CCCN(c4ncnc5[nH]ccc45)C3)c2)C1 (stereo partly shown) [compound 192]
- pIC50: 5.00 to 6.00

- pIC50: 6.00 to 7.00
SMILES: Nc1ncnc(N2CC[C@H](O)[C@@H](N3CCCC(Nc4cc(Cl)cc(Cl)c4)C3=O)C2)c1F (stereo partly drawn) [compound 325, trans 1′-(6-Amino-5-fluoropyrimidin-4-yl)-3-(3,5-dichlorophenylamino)-4′-hydroxy-1,3′-bipiperidin-2-one]

SMILES: Cn1nccc1NC(=O)Nc1cccc(C2CCCN(c3ncnc4[nH]ccc34)C2)c1 (stereo not shown) [compound 249]
- pIC50 [1]: < 5.00

SMILES: CC(C)CNC(=O)Nc1cccc(C2CCCN(c3ncnc4[nH]ccc34)C2)c1 (stereo not shown) [compound 212]
- pIC50: 5.00 to 6.00

SMILES: Nc1ncnc(N2CC[C@@H](O)[C@H](N3CCC[C@@H](Nc4cc(Cl)cc(Cl)c4)C3=O)C2)c1F [compound 327, trans (3R)-1′-(6-Amino-5-fluoropyrimidin-4-yl)-3-(3,5-dichlorophenylamino)-4′-hydroxy-1,3′-bipiperidin-2-one]
- pIC50 [1]: > 7.00

SMILES: O=C(Nc1cccc(C2CN(c3ncnc4[nH]ccc34)CCN2CCO)c1)Nc1c(F)cccc1N1CCCC1 (stereo not shown) [compound 135, 1-(2-Fluoro-6-(pyrrolidin-1-yl)phenyl)-3-(3-(1-(2-hydroxyethyl)-4-(7H-pyrrolo[2,3-d]pyrimidin-4-yl)piperazin-2-yl)phenyl)urea]
- pIC50 [1]: > 7.00
